Like-named read-outs stand apart in the source and are kept apart here.

Here are results for 4 molecules from PMC3288053 (PLoS ONE, 2012).

One test deals with CHO-K1/GLUT4 cells. In words: Quantification of GLUT4 translocation ratio (IN Cell Analyzer 1000). It is filed as cell-based. Conditions: for EC50: serum-starved cells, read-out: EC50, membrane GLUT4 (GLUT4 translocation). The method, then:
CHO-K1 cells are transfected with pEGFPN1-GLUT4-myc plasmid using Lipofectamine 2000, and subsequently screened with G418 (800 µg/ml). The CHO-K1/GLUT4 stable cell line is obtained by picking up clones.
CHO-K1/GLUT4 cells are seeded into 96-well plate. After cells reached 100% confluence, F12 medium is changed to 3T3-L1 medium and incubated for 2 days. 8-hour serum starvation later, cells are stimulated with insulin for 5 minutes, fixed with 3.7% formaldehyde for 15 minutes, and labeled with anti-myc monoclonal antibody and secondary antibody (Alexa Fluor 647 conjuncted anti-mouse antibody). Fluorescence pictures were obtained by IN Cell Analyzer 1000 Instrument (GE Healthcare) with the same exposure time. The basic unit comprises several core components including a Nikon microscope and a high-resolution CCD camera. Membrane-located GLUT4 is represented by the intensity of red fluorescence (Alex fluor 647) and normalized by the intensity of green fluorescence (GLUT4-EGFP), which is assigned to the total GLUT4 [46].

The target of a further test is T1, TC-PTP (Homo sapiens, UniProt P17706).
T1 construct: pGEX4T-1-TC-PTP1–288; GST (N); made in house; host or cells: E. coli BL21 (DE3)
T1 sequence (P17706 1-288): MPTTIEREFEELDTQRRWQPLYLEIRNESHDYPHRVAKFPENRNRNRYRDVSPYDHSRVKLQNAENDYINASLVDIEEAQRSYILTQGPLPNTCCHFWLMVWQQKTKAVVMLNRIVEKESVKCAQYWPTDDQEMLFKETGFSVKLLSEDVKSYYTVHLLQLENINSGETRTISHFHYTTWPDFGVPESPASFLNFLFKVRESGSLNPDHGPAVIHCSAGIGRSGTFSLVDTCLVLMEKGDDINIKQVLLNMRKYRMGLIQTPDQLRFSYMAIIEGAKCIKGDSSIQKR
In words: PTP enzyme inhibition assay (pNPP substrate). Conditions: PTPs 0.3 µM, pNPP 5 mM, 25°C; NI: No inhibition at 100 µM. The class given is biochemical. The procedure: (§1) The enzymatic activities of the recombinant PTPs are measured at 25°C using pNPP as substrate. The initial velocities of enzymatic reactions are determined by continuously measuring the absorbance at 405 nm every 15 s using a microplate spectrophotometer (Bio-Rad). […] To determine the inhibition type, each concentration of Rut (0, 50 and 75 µM) is incubated with PTP1B (0.3 µM) in reaction buffer (50 mM HEPES, pH7.0, 1 mM EDTA, and 100 mM NaCl) for 10 min and the reactions are initiated by different concentrations of pNPP (0.5–10 mM). The inhibition type is determined using double-reciprocal plots. In determination of the selectivity of Rut against PTPs, the result is referred as no inhibition when 100 µM Rut inhibits no enzyme activity. The same reaction systems are designed for all PTPs including PTP1B.

The next test addresses T2, PTPα (Homo sapiens, UniProt P18433).
T2 construct: pGEX2T-PTPα182–803; GST (N); made in house; host or cells: E. coli BL21 (DE3)
Kind of test: PTP enzyme inhibition assay (pNPP substrate). The class given is biochemical. Conditions: PTPs 0.3 µM, pNPP 5 mM, 25°C; NI: No inhibition at 100 µM; read-out: IC50 PTPα. The procedure: as §1

The target in another test is T3, PTP1B (Homo sapiens, UniProt P18031).
T3 construct: pGEX4T-1-PTP1B1–321; GST (N); made in house; host or cells: E. coli BL21 (DE3)
T3 sequence (P18031 1-321): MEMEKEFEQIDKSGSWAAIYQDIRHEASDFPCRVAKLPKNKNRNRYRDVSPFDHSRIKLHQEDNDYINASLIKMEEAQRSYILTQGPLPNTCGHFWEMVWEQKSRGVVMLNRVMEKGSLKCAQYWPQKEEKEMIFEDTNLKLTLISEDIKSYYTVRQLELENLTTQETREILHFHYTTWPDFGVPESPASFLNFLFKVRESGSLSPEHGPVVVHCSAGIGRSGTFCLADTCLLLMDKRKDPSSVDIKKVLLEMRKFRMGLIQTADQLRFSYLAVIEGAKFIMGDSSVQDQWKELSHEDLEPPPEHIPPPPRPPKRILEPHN
Kind of test: PTP enzyme inhibition assay (pNPP substrate). It is filed as biochemical. Conditions: PTPs 0.3 µM, pNPP 5 mM, 25°C; NI: No inhibition at 100 µM. The procedure:
as §1

The target of the next test is T4, LAR (Homo sapiens, UniProt P10586).
T4 construct: pGEX2T-LAR1282–1888; GST (N); made in house; host or cells: E. coli BL21 (DE3)
T4 sequence (P10586 1301-1907 limits assumed): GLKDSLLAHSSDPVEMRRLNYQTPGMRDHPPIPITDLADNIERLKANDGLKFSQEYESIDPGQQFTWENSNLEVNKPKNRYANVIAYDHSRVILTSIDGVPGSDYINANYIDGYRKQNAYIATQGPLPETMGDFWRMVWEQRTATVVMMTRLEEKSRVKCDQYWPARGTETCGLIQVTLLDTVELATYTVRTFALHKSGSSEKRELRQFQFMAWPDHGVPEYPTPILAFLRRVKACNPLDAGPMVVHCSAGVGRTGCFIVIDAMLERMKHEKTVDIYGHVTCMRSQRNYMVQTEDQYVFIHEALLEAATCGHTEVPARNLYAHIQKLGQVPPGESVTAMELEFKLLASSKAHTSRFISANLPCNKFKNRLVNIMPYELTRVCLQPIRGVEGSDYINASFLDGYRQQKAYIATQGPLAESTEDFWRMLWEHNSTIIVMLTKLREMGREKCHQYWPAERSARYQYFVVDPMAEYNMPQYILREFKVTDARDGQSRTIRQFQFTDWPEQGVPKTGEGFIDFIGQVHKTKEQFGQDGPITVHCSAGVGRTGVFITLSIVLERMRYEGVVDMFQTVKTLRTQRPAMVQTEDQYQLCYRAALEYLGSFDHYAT
In words: PTP enzyme inhibition assay (pNPP substrate). The class given is biochemical. The conditions noted are these: PTPs 0.3 µM, pNPP 5 mM, 25°C; NI: No inhibition at 100 µM; read-out: IC50 LAR. The procedure:
as §1

The target in a further test is T5, CD45 (Homo sapiens, UniProt P08575).
T5 construct: pGEX2T-CD45_560–1256; GST (N); made in house; host or cells: E. coli BL21 (DE3)
T5 sequence (P08575 610-1306 limits assumed): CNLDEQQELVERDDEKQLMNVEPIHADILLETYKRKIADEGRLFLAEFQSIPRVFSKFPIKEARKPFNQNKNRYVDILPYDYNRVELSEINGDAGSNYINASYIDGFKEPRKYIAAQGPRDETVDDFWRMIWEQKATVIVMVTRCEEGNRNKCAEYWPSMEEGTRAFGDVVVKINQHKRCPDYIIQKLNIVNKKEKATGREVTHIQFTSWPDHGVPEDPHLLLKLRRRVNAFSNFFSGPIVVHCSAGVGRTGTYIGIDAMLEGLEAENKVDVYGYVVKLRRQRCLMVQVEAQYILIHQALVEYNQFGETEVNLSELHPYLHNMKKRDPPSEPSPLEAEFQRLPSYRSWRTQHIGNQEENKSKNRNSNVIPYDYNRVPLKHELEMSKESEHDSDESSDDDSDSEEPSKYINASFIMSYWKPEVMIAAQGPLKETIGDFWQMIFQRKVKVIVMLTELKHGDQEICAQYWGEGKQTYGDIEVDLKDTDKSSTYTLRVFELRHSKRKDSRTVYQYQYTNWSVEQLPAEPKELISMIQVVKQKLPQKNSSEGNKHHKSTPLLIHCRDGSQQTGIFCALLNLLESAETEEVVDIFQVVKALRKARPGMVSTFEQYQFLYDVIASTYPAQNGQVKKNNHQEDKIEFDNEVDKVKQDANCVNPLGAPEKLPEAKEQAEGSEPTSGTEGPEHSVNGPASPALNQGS
Kind of test: PTP enzyme inhibition assay (pNPP substrate). The conditions noted are these: PTPs 0.3 µM, pNPP 5 mM, 25°C; NI: No inhibition at 100 µM. The class given is biochemical. The procedure:
as §1

The subject of a further test is 3T3-L1 adipocytes. Kind of test: 2-Deoxyglucose uptake in 3T3-L1 adipocytes. The class given is cell-based. Conditions: insulin 17 nM; Rut 5–25 µM, C2 10 µM. The method, then:
3T3-L1 adipocytes are fully differentiated (the 10th day after MDI stimulation) and seeded into 24-well plate. After incubation with compounds in serum-free medium containing 0.5% BSA for 8 hours, medium is changed to Krebs buffer containing […] insulin and incubated for 30 minutes. In the last 5 minutes, cells are incubated with 2-[^3H]-deoxy-D-glucose. The glucose uptake is stopped by ice-cold PBS, and the cells are then lysed with 0.1% Triton. Finally the radioactivity is calculated by a scintillation counter. Cytochalasin B is used to measure nonspecific uptake, and the value is subtracted from all the data. Radioactivity is normalized by total protein concentration that is measured by BCA kit.

Test [1] has as its target T6, Retinoid X receptor α ligand-binding domain (RXRα-LBD), His-tagged, purified (human, UniProt P19793 229-458).
T6 construct: also called hRXRα-LBD; source: E. coli BL21 (DE3), purified (His-tag purification, Novagen instructions)
T6 sequence: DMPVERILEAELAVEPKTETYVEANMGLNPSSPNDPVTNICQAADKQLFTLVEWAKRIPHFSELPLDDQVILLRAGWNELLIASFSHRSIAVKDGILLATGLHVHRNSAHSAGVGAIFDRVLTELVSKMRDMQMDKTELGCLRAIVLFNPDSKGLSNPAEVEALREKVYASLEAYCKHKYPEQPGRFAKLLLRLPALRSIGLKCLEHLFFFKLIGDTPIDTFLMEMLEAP
Kind of test: SPR; Biacore 3000; purified SRC1(613-773) immobilised on a CM5 chip by amine coupling; different concentrations of PPARγ-LBD or RXRα-LBD injected at 20 µL/min for 60 s, dissociation 120 s; running buffer 10 mM HEPES, 150 mM NaCl, 3 mM EDTA, 0.005% P20, pH 7.4; also 1 µM LBD pre-incubated for 1 h with Rut (16.8-100 µM). The conditions noted are these: both partners purified.

The target of test [2] is T7, Peroxisome proliferator-activated receptor γ ligand-binding domain PPARγ-LBD(202-477), His-tagged, purified (human, UniProt P37231-2 202-477).
T7 construct: also called hPPARγ-LBD; source: E. coli BL21 (DE3), purified (His-tag purification, Novagen instructions)
T7 sequence (looked up): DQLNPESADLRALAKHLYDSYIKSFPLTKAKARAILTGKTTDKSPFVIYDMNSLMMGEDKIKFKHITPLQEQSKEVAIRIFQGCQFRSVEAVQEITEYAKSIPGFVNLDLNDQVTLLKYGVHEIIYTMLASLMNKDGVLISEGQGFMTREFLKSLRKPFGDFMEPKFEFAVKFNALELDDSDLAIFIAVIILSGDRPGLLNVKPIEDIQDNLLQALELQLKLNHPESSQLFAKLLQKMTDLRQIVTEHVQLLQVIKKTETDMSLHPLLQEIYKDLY
The description is as above. Conditions: both partners purified.

With `COC[C@H]1OC(=O)c2coc3c2[C@@]1(C)C1=C(C3=O)[C@@H]2CCC(=O)[C@@]2(C)C[C@H]1OC(C)=O` [wortmannin, reference compound], in the test on CHO-K1/GLUT4 cells (wortmannin 1 µM, Rut 20 µM or insulin 170 nM), the “effect on Rut or insulin-stimulated GLUT4 translocation” value is listed as “completely inhibits”.

Consider “insulin: insulin used as stimulus in cellular GLUT4 translocation assay”, for which, in the test with CHO-K1/GLUT4 cells (IN Cell 1000 analyzer based system), the “insulin-stimulated GLUT4 translocation over the basal” value is “around 1.5 fold”. In addition, the EC50 in the test with CHO-K1/GLUT4 cells (insulin 5 min) amounted to 100 nM.

As for pervanadate [reference compound], the IC50 at TC-PTP amounted to 36 nM; at PTPα, 59 nM; at PTP1B it was 15 nM; on LAR, 26 nM; on CD45, 6 nM. For the same molecule, the insulin-induced glucose uptake entry in the test with 3T3-L1 adipocytes is listed as “increase the insulin-stimulated glucose uptake”. In addition, in the test with CHO-K1/GLUT4 cells (pervanadate 30 min), the half-maximal effective concentration (EC50) came out at 51000 nM.

B1: Steroid receptor coinducer-1 fragment SRC1(613-773), His-tagged, purified (domain or fragment, human, UniProt Q15788 613-773, looked up)
chain: LHNNDRLSDGDSKYSQTSHKLVQLLTTTAEQQLRHADIDTSCKDVLSCTGTSNSASANSSGGSCPSSHSSLTERHKILHRLLQEGSPSDITTLSVEPDKKDSASTSVSVTGQVQGNSSIKLELDASKKKESKDHQLLRYLLDKDEKDLRSTPNLSLDDVKV
notes: plasmid pET15b-SRC1(613-773); Human cDNA is stated as template for the two-hybrid SRC1(613-773) clone; source: E. coli BL21 (DE3), purified (His-tag purification, Novagen instructions)
B1 had an equilibrium dissociation constant (Kd) in test [1] of 1160 nM. Besides, the binding result in test [2] is on record as “binds”.
